In PubChem BioAssay AID624395 (The Scripps Research Institute Molecular Screening Center, 2012) one finds IC50 data, which are given here for 67 compounds.

The source made the active and inactive calls. How the calls were made is not given here.

The test system of this experiment is cell-based VP16 transactivation luciferase luminescence. Put plainly: compounds lowering VP16-driven reporter luminescence – cell-based, counter-screen for NR2E3 agonist project, dose response (AID 624395). In general terms: Counterscreens check selectivity or assay interference.
Consider `CCC1(OC(=O)CN(C)C)C(=O)OCc2c1cc1n(c2=O)Cc2cc3c(N)cccc3nc2-1` (configuration not stated), for which the IC50 (usually the concentration at which inhibition is half-maximal) is 2.99 µM. Consider `Cc1ccc([C@@H]2CC=C(C(=O)O)[C@H](c3ccc(C(C)(C)C)cc3)N2S(=O)(=O)c2ccc(C)cc2)cc1`, for which the IC50 was 7.47 µM.

For `COc1ccc(C)cc1NC(=O)c1nnn(Cc2cccc(C(F)(F)F)c2)c1N`, the IC50 is > 39.8 µM (inactive).

With `O=c1c(Br)ccc(Br)cc1Br`, the half-inhibitory concentration (IC50) was 4.8 µM. On to `CC(C)(C)Nc1nc(-c2ccccn2)nc2ccccc12`, for which the IC50 was 4.08 µM. Take `CCOC(=O)[C@]12Cc3cc(C)ccc3[C@H]1N(C1CCCCC1)C(=O)c1cc(OC)ccc12`: the IC50 is 4.32 µM. The result for `O=S(=O)(NC1CCCC1)c1ccc(S(=O)(=O)N2CCc3ccccc32)cc1` reads 4.59 µM. Turning to `Oc1[nH]c2ccc(Br)cc2c1N=NC(=S)N1CCOCC1`, the IC50 is > 13.3 µM (inactive). Regarding `COC(CNC(=O)CSCc1nc(-c2ccc(SC)cc2)oc1C)OC`, the half-maximal inhibitory concentration (IC50) is 2.61 µM. `NC(=O)c1nn(-c2ccccc2)nc1NC(=O)CSc1nnnn1-c1ccc(Cl)cc1`: the IC50 was > 39.8 µM (inactive). Next, `O=[N+]([O-])c1ccc(NC(=S)NCCc2ccc(F)cc2)cc1`: 5.02 µM; `Cc1sc2ncnc(NCC(O)c3ccccc3)c2c1C` (configuration not stated): 4.74 µM; `O=S(=O)(/C(=C\c1ccc(C(F)(F)F)cc1)c1nc2ccccc2[nH]1)c1ccccc1`: 10.8 µM (inactive). Consider `O=C(Nc1ccc(Cn2cccn2)cc1)c1ccc(COc2ccccc2Br)cc1`, for which the IC50 is > 39.8 µM (inactive). With `S=C(NN=Cc1ccccn1)Nc1ccccn1`, the IC50 is 4.44 µM.

For the compound `N#Cc1c(-c2ccccc2)cc(-c2ccccc2)nc1SCCC(=O)O`, the IC50 was 31.5 µM (inactive). `Cc1ccnc(NC(=O)CSc2cc(=O)n(C)c3ccccc23)c1`: the IC50 was 11 µM (inactive).

Regarding `CSC(=Nc1ccccc1)N=C(SCc1ccccc1)N(C)C`, the IC50 is 4.06 µM. `Cc1ccc(OCCOC(=O)c2cc(S(=O)(=O)N3CCCCC3)ccc2N2CCOCC2)cc1`: the IC50 is 8.95 µM. Take `COc1ccc(CNC(=O)c2c(C)oc3c2C(=O)c2ccccc2C3=O)cc1`: the half-inhibitory concentration (IC50) is 1.18 µM.

On to `Cc1c(Cl)ccc2sc(N3CCN(C(=O)C4=COCCO4)CC3)nc12`, for which the IC50 is 7 µM. On to `Cc1nc2ccc(S(=O)(=O)Nc3cccc(-c4nc5cccnc5s4)c3)cc2s1`, for which the IC50 is 7.12 µM.

As to `CN(C)c1ccc(/C=C/c2ccc3ccccc3[n+]2C)cc1`, the IC50 is 13 µM (inactive). The result for `O=C(O)c1ccc(S(=O)(=O)/N=C2\C=C(Nc3ccccc3F)C(=O)c3ccccc32)cc1` reads 4.45 µM; that for `CCn1c(=O)cc(SCC(=O)Nc2ccc(C)cn2)c2ccccc21`, 4.63 µM; that for `C=C1C(=O)OC2CC(C)C3C=CC(=O)C3(C)C(O)C12` (configuration not stated), 10.5 µM (inactive). For the compound `Cc1cc(C(=O)COc2cccnc2[N+](=O)[O-])c(C)n1-c1ccccc1`, the IC50 was 0.3 µM. Take `O=C(CSc1nnnn1-c1ccccc1)Nc1nsc(-c2ccc(Cl)cc2)n1`: the IC50 was 0.833 µM. Turning to `O=C(C1CC1)N1CCc2cc(Br)cc(S(=O)(=O)N3CCN(c4ccccn4)CC3)c21`, the IC50 is > 39.8 µM (inactive).

Consider `COc1cnc(-c2ccccn2)nc1Sc1ccccc1Cl`, for which the IC50 was 4.92 µM. For `CC(Oc1ccc(Br)cc1)c1nc2c3ccccc3nc(=S)n2[nH]1` (configuration not stated), the IC50 was 4.33 µM. The result for `CCCCCCCCCCCCN1[C@@H](CC(=O)O)c2cc(C(F)(F)F)ccc2S1(=O)=O` reads 8.1 µM; that for `CCC(=O)NC(c1cccs1)c1cc([N+](=O)[O-])c2cccnc2c1O` (configuration not stated), 3.89 µM. The result for `Cc1ccnc(NC(=O)CCCOc2cc(=O)n(C)c3ccccc23)c1` reads 8.23 µM; that for `COc1ccccc1C(=O)Nc1nc2ccccc2[nH]1`, 5.03 µM; that for `Cc1cnc(NC(=O)CN2CCN(c3ccccn3)CC2)s1`, 9.56 µM. Turning to `COc1ccc(CNC(=O)c2cccc3c(-c4ccc(F)c(F)c4)coc23)cc1OC`, the IC50 is 4.54 µM. For the compound `CC(=O)c1c(O)cc(O)c(C(C)=O)c1O`, the IC50 is 4.56 µM.

`Cc1ccccc1Cn1nnc(C(=O)Nc2cccc(C)c2C)c1N`: the IC50 was 18 µM (inactive).

For the compound `O=c1cc(C(F)(F)F)nc(SC/C=C/c2ccccc2)[nH]1`, the IC50 was 13 µM (inactive). The result for `C=C(C(=O)c1ccccc1)C(NC(C)(C)C)c1ccccc1` (configuration not stated) reads 5.27 µM. For the compound `O=C1C(=O)c2cccnc2-c2ncccc21`, the IC50 was 13.1 µM (inactive). As for `Cc1nc(NC(=O)c2c(-c3ccccc3Cl)noc2C)sc1C`, the IC50 was > 39.8 µM (inactive).

Turning to `Cc1cccc(C(=O)N[C@H](C(=O)Nc2ncc(C)s2)C(C)C)c1`, the IC50 was 12.1 µM (inactive). With `COc1ccccc1-n1c(=O)oc2ccc(Cl)cc2c1=O`, the IC50 was 7.67 µM.

Consider `O=[N+]([O-])c1cc(CN2CCN(c3ccccc3)CC2)c(O)c2ncccc12`, for which the IC50 is > 39.8 µM (inactive).

As for `Cc1cccc(NS(=O)(=O)c2ccc(-c3cnc(C4CC4)o3)cc2)c1C`, the IC50 was 5.28 µM. `Cc1ccnc(NC(=O)C2CCN(S(=O)(=O)c3c(C)c(C)cc(C)c3C)CC2)c1`: the IC50 is 13.2 µM (inactive). `Cc1cnc(NC(=O)Cc2ccc(Br)cc2)s1`: the IC50 is > 39.9 µM (inactive). For the compound `COc1ccc(NC(=O)/C(Cl)=C(/Cl)S(=O)Cc2ccccc2)cn1` (configuration not stated), the IC50 is 2.1 µM. On to `O=C(CSc1nnnn1-c1ccc(O)cc1)Nc1ccc(N2CCOCC2)c(Cl)c1`, for which the IC50 is 4.47 µM. Next, `CC1CC(C)C(=NNC(N)=O)C(C(O)CC2CCC(=O)NC2=O)C1` (configuration not stated): 4.07 µM; `CN1CCN(C(=O)c2cccc(-c3cnc4cnc(-c5ccccc5Oc5ccccc5)cn34)c2)CC1`: 12.7 µM (inactive). For `CCNc1nc2c(c(=O)n(C)c(=O)n2C)n1Cc1ccc(Cl)cc1`, the IC50 is 6.02 µM. `CCCCOc1ccc(CONS(=O)(=O)c2ccc(NC(C)=O)cc2)cc1Cl`: the IC50 is 4.03 µM. Take `O=C(Nc1cccc(NC(=O)c2c(F)cccc2F)n1)c1c(F)cccc1F`: the IC50 was > 39.8 µM (inactive). The result for `C[C@H]1CCC/C=C/[C@@H]2C[C@H](O)C[C@H]2[C@H](O)[C@H](S(=O)c2ccc(O)cc2)CC(=O)O1` (some centres not stated) reads 3.52 µM; that for `CC(=O)Nc1ccc(Sc2ccc([N+](=O)[O-])o2)cc1`, 18.3 µM (inactive). For `C=CC[n+]1c(-c2ccc(Cl)cc2Cl)csc1Nc1ccc(NC(C)=O)cc1`, the IC50 was 2.75 µM. For `FC(F)Sc1ccc(NC(=S)N2CCN(c3ccccn3)CC2)cc1`, the IC50 is 4.15 µM. As for `O=c1cc(N2CCN(c3cccc(Cl)c3)CC2)[nH]c(=O)n1C1CCCCC1`, the IC50 was > 39.8 µM (inactive). In the case of `CCC1(OC(=O)CN)C(=O)OCc2c1cc1n(c2=O)Cc2cc3ccccc3nc2-1` (configuration not stated), the IC50 is 1.31 µM. Regarding `Cc1ccc(Cc2cnc(N3C(=N)SC(C)C3=O)s2)cc1` (configuration not stated), the IC50 is 4.37 µM.

In the case of `CC(C)c1cc2c(c(O)c1O)[C@@]13CCCC(C)(C)C1CC2OC3=O` (some centres not stated), the IC50 is > 39.9 µM (inactive). Take `Nc1nc(-c2ccccn2)nc(N)c1Cc1c(F)cccc1Cl`: the 50% inhibitory concentration (IC50) is 2.69 µM. `COc1ccc2c(c1)/C(=C/c1cnc[nH]1)C(=O)N2`: the IC50 is 12.7 µM (inactive). As for `CNC(=S)/N=C/NOCc1ccc(Cl)cc1Cl`, the IC50 is 5.03 µM.
